Measurements as given in patent publication US4701521A, “Method of effecting cellular uptake of molecules” (The Trustees of Boston University, priority 1979, dated 1987).
Where two headings read alike, the source gives them in different places.

Experiments:
L-929 fibroblasts = experiment: Cytocidal effects of 6-MPRP and 6-MPRP-PLL; type: cell-based, mouse
Text: […] After exposure to the free or conjugated drug, the monolayers were kept growing for 2 days in standard growth medium, at which time no cytocidal effect could be detected.

L929 fibroblast cells = experiment: Cellular uptake of HRP and conjugates as cell-associated peroxidase activity; type: cell-based, mouse
Text: The rate of color development measured at 460 nm (ΔA460 nm /min) was used as an indication of enzymatic activity, and the enzymatic activity measured in the cell extract was used as an expression of cellular uptake.
Following exposure to HRP, or one of its two conjugates, the monolayers of L 929 mouse fibroblasts were washed and detached and the detached cells were washed as described in Example 3. The cells were then lysed and the cell extract used for measurement of enzymatic activity of HRP as described in Example 6.

L929 fibroblasts = experiment: Cytochemical localization of HRP reaction product (light and electron microscopy); type: cell-based, mouse
[1] = tested on: BHK (DMN^ts) baby hamster kidney cell line; settings: for Cellular Uptake in 60 min.: 3 μg/ml
Experimental: This experiment was done with a baby hamster kidney cell line (BHK) transformed by exposure to dimethylnitrosamine (DMN), growing with a non-malignant phenotype at 32° C. and a malignant phenotype at 38.5° C. This temperature-sensitive mutant line, called BHK (DMN^ts) was described by G. DeMayorca et al. Proc. Natl. Acad. Sci U.S.A., 70, 46-49 (1973). The cells were grown as monolayers in Dulbecco's high glucose medium. The transition from normal to transformed phenotype requires 3 to 4 population doublings or approximately 56 hours of growth at 38.5° C. The reversion to the normal, non-malignant phenotype likewise require 3 to 4 population doublings or approximately 112 hours of growth at 32° C. […] At time 0, the growth media of the confluent monolayers were replaced by serum free medium prewarmed to 37° C. and containing 3 μg/ml radioiodinated polymer. The monolayers were then incubated for 60 min. at 37° C.

Sarcoma S-180 monolayers = settings: for Uptake, 1-min / Uptake, 60-min: 3 μg/ml ^125 I-PLL, 37° C.; for Uptake, 60-min (Corrected for Concentration of 79 nM): assuming uptake linear with concentration
Text: Poly-L-lysines of three different average molecular weights, i.e., 38,000, 115,000 and 230,000, were radio-iodinated using the Bolton-Hunter Reagent. See Bolton, A. E. and Hunter, W. M., Biochem J., 133, pp 529-38 (1973).

[2] = tested on: variant of the P 1798 lymphosarcoma, steroid-resistant, presumed MTX-sensitive; experiment: Antitumor effect (tumor weight), steroid-resistant variant; type: in vivo, BALB/c mice; settings: for Mean Tumor Weight: Mean ± SEM
Text: The inoculation developed into a palpable tumor within 7-8 days and killed the animal on the average within 14 days. Following inoculation, mice were divided into 4 groups of 4 or 5 mice.
Treatment consisted of one daily intravenous injection for 4 consecutive days, and was begun on Day 11 and Day 12 post-inoculation in experiment number 1 and 2 respectively. All animals were sacrificed one day after the last injection.

[3] = Normal phenotype, PLL MW 125,000, PDL MW 130,000

O=P(O)(O)OC[C@H]1O[C@@H](n2cnc3c(=S)[nH]cnc32)[C@H](O)[C@@H]1O [6-MPRP, 6-mercaptopurine ribosylphosphate]
growth inhibition, drug present for the duration of the experiment (L-929 fibroblasts; 2×10^-6 M): both compounds had inhibiting effects | cell growth after subculture and 7 additional days (L-929 fibroblasts; 1 h exposure to combination of free 6-MPRP (1×10^-5 M) and free PLL): grew at a rate undistinguichable from that of controls

horseradish peroxidase [HRP]
Cell-associated peroxidase activity (L929 fibroblast cells; Example 6, enzyme concentration in medium 150 μg/ml): 0.14 ΔA460 nm /min/mg cell protein | Cell-associated peroxidase activity (L929 fibroblast cells; Example 6, enzyme concentration in medium 1500 μg/ml): 1.55 ΔA460 nm /min/mg cell protein | Cell-associated peroxidase activity (L929 fibroblast cells; Example 10, 60-minute exposure, 1.5 μg/ml in medium): 0 ΔA460 nm /min/mg cell protein | Cell-associated peroxidase activity (L929 fibroblast cells; Example 10, 60-minute exposure, 15 μg/ml in medium): 0 ΔA460 nm /min/mg cell protein | staining of HRP reaction products, light microscopy (L929 fibroblasts; 60' exposure, HRP 150 μg/ml, HRP-PLL 1.5, 5 and 15 μg/ml): minimal staining | HRP reaction product, electron microscopy (L929 fibroblasts; HRP at 100-time greater concentration than HRP-PLL): minimal amounts of stained reaction product

poly-D-lysine [PDL]
Transformed/Normal (uptake ratio) [1]: 1 | Cellular Uptake in 60 min. [1, 3]: 685 ng/mg cell protein | Cellular Uptake in 60 min. ([1]; Transformed phenotype): 680 ng/mg cell protein

poly-L-lysine [PLL (MW 38,000)]
Uptake, 1-min (Sarcoma S-180 monolayers): 18.8 ng/mg cell protein | Uptake, 60-min (Sarcoma S-180 monolayers): 349.4 ng/mg cell protein | Uptake, 60-min (Corrected for Concentration of 79 nM) (Sarcoma S-180 monolayers): 349 ng/mg cell protein

poly-L-lysine [PLL (MW 115,000)]
Uptake, 1-min (Sarcoma S-180 monolayers): 112.3 ng/mg cell protein | Uptake, 60-min (Sarcoma S-180 monolayers): 513.3 ng/mg cell protein | Uptake, 60-min (Corrected for Concentration of 79 nM) (Sarcoma S-180 monolayers): 1717 ng/mg cell protein

poly-L-lysine [PLL (MW 250,000)]
Uptake, 1-min (Sarcoma S-180 monolayers): 153.7 ng/mg cell protein | Uptake, 60-min (Sarcoma S-180 monolayers): 695.4 ng/mg cell protein | Uptake, 60-min (Corrected for Concentration of 79 nM) (Sarcoma S-180 monolayers): 4209 ng/mg cell protein

poly-L-lysine [PLL]
% of Controls (tumor weight) ([2]; Experiment No. 1): 113% | Mean Tumor Weight ([2]; Experiment No. 1, daily i.v. 4 days from Day 11): 6.05 ± 0.52 g | % of Controls (tumor weight) ([2]; Experiment No. 2): 102% | Mean Tumor Weight ([2]; Experiment No. 2, daily i.v. 4 days from Day 12): 6.13 ± 0.31 g | Transformed/Normal (uptake ratio) [1]: 1.43 | Cellular Uptake in 60 min. [1, 3]: 525 ng/mg cell protein | Cellular Uptake in 60 min. ([1]; Transformed phenotype): 750 ng/mg cell protein
